Data reported in US20240165174A1, “[…]-BASED COMPOSITION AND USES THEREOF FOR R[…]” (priority 2021, published 2024).

Tested on: primary human monocytes
Assay: Immunomodulation in human monocytes: cytokine/PGE2 release measured by ELISA after 24 h incubation
Type: cell-based
Details: up to the highest concentration studied (0.68 μg/mL and 0.59 μg/mL respectively)
Description: Monocyte cell cultures: Primary human monocytes were prepared from the buffy coat of healthy human blood donors using a standardized procedure.
Cells were seeded in 24-well plates at a density of 2200000 cells/well for ELISA measurements. Monocytes were incubated with test elements (5 different concentrations) for 24 h. LPS (10 ng/mL, Salmonella typhimurium SL1181) served as a positive control for cytokine release. After 24 h, supernatants were removed, centrifuged and studied for IL-1β, MCP-1, IL-6, TNF and IL-8 concentrations by ELISA using the manufacturer's protocol (n=6, 3 different donors).

Row | SMILES | effect on basal cytokine release in human monocytes
1 | [Se] [selenium] | Neither selenium, vitamin B6 nor vitamin D3 had any effect
2 | Cc1ncc(CO)c(CO)c1O.Cl [vitamin B6] | Neither selenium, vitamin B6 nor vitamin D3 had any effect
3 | C=C1CC[C@H](O)C/C1=C/C=C1\CCC[C@]2(C)[C@@H]([C@H](C)CCCC(C)C)CC[C@@H]12 [vitamin D3, cholecalciferol] | Neither selenium, vitamin B6 nor vitamin D3 had any effect
